Data reported in ChEMBL document CHEMBL1201862, “PubChem BioAssay data set” (2004).
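Five concentrations, 48 hours, 96-well plates. Here, GI50 denotes the concentration required for 50% inhibition of growth.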 Activity calls are given as the source filed them. Cut-off read from the data, not from the text of the source: active = GI50 up to about 1.1 µM and inactive = higher.

Assays:
Experiment in all cases: inhibition of tumour cell growth, NCI panel, 48 h
CCRF-CEM = tested on: CCRF-CEM
NCI-H226 = tested on: NCI-H226
SF-539 = tested on: SF-539
UACC-257 = tested on: UACC-257
A498 = tested on: A498
SR = tested on: SR
Malme-3M = tested on: Malme-3M
NCI-H23 = tested on: NCI-H23
OVCAR-8 = tested on: OVCAR-8
M19-MEL = tested on: M19-MEL
RPMI-8226 = tested on: RPMI-8226
SK-MEL-28 = tested on: SK-MEL-28
NCI-H522 = tested on: NCI-H522
M14 = tested on: M14
OVCAR-3 = tested on: OVCAR-3
U-251 = tested on: U-251
HCC 2998 = tested on: HCC 2998
SF-268 = tested on: SF-268
786-0 = tested on: 786-0
HCT-15 = tested on: HCT-15
SK-OV-3 = tested on: SK-OV-3
XF498 = tested on: XF498
DMS-114 = tested on: DMS-114
ACHN = tested on: ACHN
HCT-116 = tested on: HCT-116
A549 = tested on: A549
LXFL 529 = tested on: LXFL 529
SF-295 = tested on: SF-295
KM-20L2 = tested on: KM-20L2
SK-MEL-2 = tested on: SK-MEL-2
K562 = tested on: K562
OVCAR-4 = tested on: OVCAR-4
NCI-H460 = tested on: NCI-H460
SN12C = tested on: SN12C
TK-10 = tested on: TK-10
HT-29 = tested on: HT-29
SNB-78 = tested on: SNB-78
EKVX = tested on: EKVX
KM12 = tested on: KM12
SNB-19 = tested on: SNB-19
HL-60 = tested on: HL-60
CAKI-1 = tested on: CAKI-1
MOLT-4 = tested on: MOLT-4
UO-31 = tested on: UO-31
HOP-62 = tested on: HOP-62
SW-620 = tested on: SW-620
SK-MEL-5 = tested on: SK-MEL-5
COLO 205 = tested on: COLO 205
LOX IMVI = tested on: LOX IMVI
OVCAR-5 = tested on: OVCAR-5
IGROV-1 = tested on: IGROV-1
UACC-62 = tested on: UACC-62

COC(=O)/C(=N/NC(C)(C)C)C(C(=O)OC)C(=O)C(=O)Nc1nc2ccc([N+](=O)[O-])cc2s1 (configuration not stated)
GI50 (CCRF-CEM): > 100 µM (inactive) | GI50 (NCI-H226): > 100 µM (inactive) | GI50 (SF-539): > 100 µM (inactive) | GI50 (UACC-257): > 100 µM (inactive) | GI50 (A498): 23.6 µM (inactive) | GI50 (SR): > 100 µM (inactive) | GI50 (Malme-3M): > 100 µM (inactive) | GI50 (NCI-H23): > 100 µM (inactive) | GI50 (OVCAR-8): > 100 µM (inactive) | GI50 (M19-MEL): > 100 µM (inactive) | GI50 (RPMI-8226): > 100 µM (inactive) | GI50 (SK-MEL-28): > 100 µM (inactive) | GI50 (NCI-H522): > 100 µM (inactive) | GI50 (M14): > 100 µM (inactive) | GI50 (OVCAR-3): > 100 µM (inactive) | GI50 (U-251): > 100 µM (inactive) | GI50 (HCC 2998): > 100 µM (inactive) | GI50 (SF-268): > 100 µM (inactive) | GI50 (786-0): > 100 µM (inactive) | GI50 (HCT-15): > 100 µM | GI50 (SK-OV-3): > 100 µM (inactive) | GI50 (XF498): > 100 µM (inactive) | GI50 (DMS-114): > 100 µM (inactive) | GI50 (ACHN): > 100 µM (inactive) | GI50 (HCT-116): > 100 µM (inactive) | GI50 (A549): > 100 µM (inactive) | GI50 (LXFL 529): > 100 µM (inactive) | GI50 (SF-295): > 100 µM (inactive) | GI50 (KM-20L2): > 100 µM (inactive) | GI50 (SK-MEL-2): > 100 µM (inactive) | GI50 (K562): > 100 µM (inactive) | GI50 (OVCAR-4): > 100 µM (inactive) | GI50 (NCI-H460): > 100 µM (inactive) | GI50 (SN12C): > 100 µM (inactive) | GI50 (TK-10): > 100 µM (inactive) | GI50 (HT-29): > 100 µM (inactive) | GI50 (SNB-78): > 100 µM (inactive) | GI50 (EKVX): > 100 µM (inactive) | GI50 (KM12): > 100 µM (inactive) | GI50 (SNB-19): > 100 µM (inactive) | GI50 (HL-60): > 100 µM (inactive) | GI50 (CAKI-1): > 100 µM (inactive) | GI50 (MOLT-4): > 100 µM (inactive) | GI50 (UO-31): > 100 µM (inactive) | GI50 (HOP-62): > 100 µM (inactive) | GI50 (SW-620): > 100 µM (inactive) | GI50 (SK-MEL-5): > 100 µM (inactive) | GI50 (COLO 205): > 100 µM (inactive) | GI50 (LOX IMVI): > 100 µM (inactive) | GI50 (OVCAR-5): > 100 µM (inactive) | GI50 (IGROV-1): > 100 µM (inactive) | GI50 (UACC-62): > 100 µM (inactive)
